Bounds are passed on as bounds.

The test deals with PLK1 (Homo sapiens, UniProt P53350). Nature of the test: PLK1 Inhibition Assay I (radioactive-phosphate incorporation). The conditions noted are these: Ki(app); PLK1 Inhibition Assay I or II (table does not say which). The format is biochemical. Put shortly: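 Ki(app) values came from non-linear regression of initial rates after background subtraction, with phosphopeptide measured by phosphocellulose filter binding and scintillation counting. PLK1 at 2 nM was preincubated with compound (typically from 10 μM, 2-fold dilutions) for 10 min, then run 240 min at 25° C with 350 μM [γ-33P]ATP and 450 μM peptide substrate in HEPES pH 7.5 buffer.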
Chain of PLK1 (P53350 whole entry): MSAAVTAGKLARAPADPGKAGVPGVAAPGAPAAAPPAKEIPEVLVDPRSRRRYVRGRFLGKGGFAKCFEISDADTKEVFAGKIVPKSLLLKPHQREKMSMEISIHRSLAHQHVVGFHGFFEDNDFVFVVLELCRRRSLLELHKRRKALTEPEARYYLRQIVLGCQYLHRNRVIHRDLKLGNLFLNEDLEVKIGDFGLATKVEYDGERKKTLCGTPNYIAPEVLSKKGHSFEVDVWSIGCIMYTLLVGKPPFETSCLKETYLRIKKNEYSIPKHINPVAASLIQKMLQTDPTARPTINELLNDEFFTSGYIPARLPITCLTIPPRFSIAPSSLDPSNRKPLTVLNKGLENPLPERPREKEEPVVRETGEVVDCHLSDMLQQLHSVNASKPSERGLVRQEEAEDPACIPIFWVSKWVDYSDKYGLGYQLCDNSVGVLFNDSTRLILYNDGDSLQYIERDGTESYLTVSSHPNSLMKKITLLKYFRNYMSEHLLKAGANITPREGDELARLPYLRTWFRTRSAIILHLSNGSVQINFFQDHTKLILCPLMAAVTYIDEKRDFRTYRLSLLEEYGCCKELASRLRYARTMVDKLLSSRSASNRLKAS
In the case of `CCC(Nc1ncc(C#N)c(-c2c[nH]c3ncc(C(F)(F)F)cc23)n1)C1CCN(S(=O)(=O)C(C)C)CC1` (stereo not drawn) [Compound I-182, 2-(1-(1-(isopropylsulfonyl)piperidin-4-yl)propylamino)-4-(5-(trifluoromethyl)-1H-pyrrolo[2,3-b]pyridin-3-yl)pyrimidine-5-carbonitrile], the Ki fell in the range of 3 to 40 nM.

Turning to `N#Cc1cnc(NCC2CCN(Cc3ccccc3)CC2)nc1-c1c[nH]c2ncc(C(F)(F)F)cc12` [Compound I-89, 2-((1-benzylpiperidin-4-yl)methylamino)-4-(5-(trifluoromethyl)-1H-pyrrolo[2,3-b]pyridin-3-yl)pyrimidine-5-carbonitrile], the Ki was greater than 40 nM.

`CNC(=O)c1ccc([C@H](C)Nc2ncc(C#N)c(-c3c[nH]c4ncc(C(F)(F)F)cc34)n2)cc1` [Compound I-164, 4-((1S)-1-(5-cyano-4-(5-(trifluoromethyl)-1H-pyrrolo[2,3-b]pyridin-3-yl)pyrimidin-2-ylamino)ethyl)-N-methylbenzamide]: the Ki was 3 to 40 nM.

Take `C[C@@H](Nc1ncc(C#N)c(-c2c[nH]c3ncc(C(F)(F)F)cc23)n1)C1CCN(C(=O)[C@H]2C[C@@H](O)CN2)CC1` [Compound I-262, 2-((R)-1-(1-((2R,4R)-4-hydroxypyrrolidine-2-carbonyl)piperidin-4-yl)ethylamino)-4-(5-(trifluoromethyl)-1H-pyrrolo[2,3-b]pyridin-3-yl)pyrimidine-5-carbonitrile]: the Ki was less than 3 nM.

`CCCC(CCO)Sc1ncc(C#N)c(-c2c[nH]c3ncc(C(F)(F)F)cc23)n1` (stereo not drawn) [II-15, 2-(1-hydroxyhexan-3-ylthio)-4-(5-(trifluoromethyl)-1H-pyrrolo[2,3-b]pyridin-3-yl)pyrimidine-5-carbonitrile]: the Ki is greater than 40 nM.

Consider `CC[C@@H](C)Nc1ncc(C#N)c(-c2c[nH]c3ncc(C(F)(F)F)cc23)n1` [Compound I-83, 2-(sec-butylamino)-4-(5-(trifluoromethyl)-1H-pyrrolo[2,3-b]pyridin-3-yl)pyrimidine-5-carbonitrile], for which the Ki is less than 3 nM.

For the compound `CC(C)Nc1ncc(C#N)c(-c2c[nH]c3ncc(Nc4ccccc4)cc23)n1` [EG6, 2-(isopropylamino)-4-(5-(phenylamino)-1H-pyrrolo[2,3-b]pyridin-3-yl)pyrimidine-5-carbonitrile], the Ki was in the range of 3 to 40 nM.

Regarding `N#Cc1cnc(NCc2ccc(O)c(O)c2)nc1-c1c[nH]c2ncc(C(F)(F)F)cc12` [Compound I-37, 2-(3,4-dihydroxybenzylamino)-4-(5-(trifluoromethyl)-1H-pyrrolo[2,3-b]pyridin-3-yl)pyrimidine-5-carbonitrile], the Ki was greater than 40 nM.

Take `COc1cccc(Sc2ncc(C#N)c(-c3c[nH]c4ncc(C(F)(F)F)cc34)n2)c1` [II-11, 2-(3-methoxyphenylthio)-4-(5-(trifluoromethyl)-1H-pyrrolo[2,3-b]pyridin-3-yl)pyrimidine-5-carbonitrile]: the Ki is greater than 40 nM.

`C[C@@H](Nc1ncc(C#N)c(-c2c[nH]c3ncc(C(F)(F)F)cc23)n1)c1ccc(N2CCCC2=O)cc1` [Compound I-145, 2-((R)-1-(4-(2-oxopyrrolidin-1-yl)phenyl)ethylamino)-4-(5-(trifluoromethyl)-1H-pyrrolo[2,3-b]pyridin-3-yl)pyrimidine-5-carbonitrile]: the Ki was less than 3 nM.

For `CC[C@H](C)Nc1ncc(C#N)c(-c2c[nH]c3ncc(C(F)(F)F)cc23)n1` [Compound I-77, 2-(sec-butylamino)-4-(5-(trifluoromethyl)-1H-pyrrolo[2,3-b]pyridin-3-yl)pyrimidine-5-carbonitrile], the Ki lay in the range of 3 to 40 nM.

Turning to `N#Cc1cnc(NCCCn2ccnc2)nc1-c1c[nH]c2ncc(C(F)(F)F)cc12` [Compound I-80, 2-(3-(1H-imidazol-1-yl)propylamino)-4-(5-(trifluoromethyl)-1H-pyrrolo[2,3-b]pyridin-3-yl)pyrimidine-5-carbonitrile], the Ki was greater than 40 nM.

As for `C[C@@H](Nc1ncc(C#N)c(-c2c[nH]c3ncc(C(F)(F)F)cc23)n1)[C@H]1CC[C@H](N2CCN(C)CC2)CC1` [Compound I-261, 2-((R)-1-((1r,4R)-4-(4-methylpiperazin-1-yl)cyclohexyl)ethylamino)-4-(5-(trifluoromethyl)-1H-pyrrolo[2,3-b]pyridin-3-yl)pyrimidine-5-carbonitrile], the Ki was less than 3 nM.

As to `CC(=O)N[C@H]1CC[C@@H]([C@@H](C)Nc2ncc(C#N)c(-c3c[nH]c4ncc(C(F)(F)F)cc34)n2)CC1` [Compound I-209, N-((1S,4s)-4-((1R)-1-(5-cyano-4-(5-(trifluoromethyl)-1H-pyrrolo[2,3-b]pyridin-3-yl)pyrimidin-2-ylamino)ethyl)cyclohexyl)acetamide], the Ki lay in the range of 3 to 40 nM.

Regarding `COc1ccc(C(C)Nc2ncc(C#N)c(-c3c[nH]c4ncc(C(F)(F)F)cc34)n2)cc1Cl` (stereo not drawn) [Compound I-84, 2-(1-(3-chloro-4-methoxyphenyl)ethylamino)-4-(5-(trifluoromethyl)-1H-pyrrolo[2,3-b]pyridin-3-yl)pyrimidine-5-carbonitrile], the Ki was less than 3 nM.

Regarding `CC(=O)NCCNc1ncc(C#N)c(-c2c[nH]c3ncc(C(F)(F)F)cc23)n1` [Compound I-40, N-(2-(5-cyano-4-(5-(trifluoromethyl)-1H-pyrrolo[2,3-b]pyridin-3-yl)pyrimidin-2-ylamino)ethyl)acetamide], the Ki is greater than 40 nM.

As to `CC(Nc1ncc(C#N)c(-c2c[nH]c3ncc(C(F)(F)F)cc23)n1)c1ccc(N2CCOCC2)cc1` (stereo not drawn) [Compound I-125, 2-(1-(4-morpholinophenyl)ethylamino)-4-(5-(trifluoromethyl)-1H-pyrrolo[2,3-b]pyridin-3-yl)pyrimidine-5-carbonitrile], the Ki is less than 3 nM.

With `N#Cc1cnc(NCc2ccc3c(c2)OCO3)nc1-c1c[nH]c2ncc(C(F)(F)F)cc12` [Compound I-56], the Ki was in the range of 3 to 40 nM.

Regarding `C[C@@H](Nc1ncc(C#N)c(-c2c[nH]c3ncc(C(F)(F)F)cc23)n1)C1CCN(C(=O)C(N)=O)CC1` [Compound I-258, 2-(4-((1R)-1-(5-cyano-4-(5-(trifluoromethyl)-1H-pyrrolo[2,3-b]pyridin-3-yl)pyrimidin-2-ylamino)ethyl)piperidin-1-yl)-2-oxoacetamide], the Ki is less than 3 nM.

In the case of `CNC(=O)C(C)(C)Nc1ncc(C#N)c(-c2c[nH]c3ncc(Cl)cc23)n1` [IA-8, 2-(4-(5-chloro-1H-pyrrolo[2,3-b]pyridin-3-yl)-5-cyanopyrimidin-2-ylamino)-N,2-dimethylpropanamide], the Ki was greater than 40 nM.

On to `C[C@@H](Nc1ncc(C#N)c(-c2c[nH]c3ncc(C(F)(F)F)cc23)n1)C1CCN(C(=O)[C@H](N)CCCN)CC1` [Compound I-252, 2-((R)-1-(1-((R)-2,5-diaminopentanoyl)piperidin-4-yl)ethylamino)-4-(5-(trifluoromethyl)-1H-pyrrolo[2,3-b]pyridin-3-yl)pyrimidine-5-carbonitrile], for which the Ki fell in the range of 3 to 40 nM.

As to `CC(O)CNc1ncc(C#N)c(-c2c[nH]c3ncc(C(F)(F)F)cc23)n1` (stereo not drawn) [Compound I-91, 2-(2-hydroxypropylamino)-4-(5-(trifluoromethyl)-1H-pyrrolo[2,3-b]pyridin-3-yl)pyrimidine-5-carbonitrile], the Ki fell in the range of 3 to 40 nM.

Regarding `C#CCN1CCC(C(C)Nc2ncc(C#N)c(-c3c[nH]c4ncc(C(F)(F)F)cc34)n2)CC1` (stereo not drawn) [Compound I-178, 2-(1-(1-(prop-2-ynyl)piperidin-4-yl)ethylamino)-4-(5-(trifluoromethyl)-1H-pyrrolo[2,3-b]pyridin-3-yl)pyrimidine-5-carbonitrile], the Ki lay in the range of 3 to 40 nM.

Regarding `COc1ccc(CNc2ncc(C#N)c(-c3c[nH]c4ncc(C(F)(F)F)cc34)n2)cc1` [Compound I-12, 2-(4-methoxybenzylamino)-4-(5-(trifluoromethyl)-1H-pyrrolo[2,3-b]pyridin-3-yl)pyrimidine-5-carbonitrile], the Ki is greater than 40 nM.

Consider `CC(C)C[C@@H](N)C(=O)N1CCC([C@@H](C)Nc2ncc(C#N)c(-c3c[nH]c4ncc(C(F)(F)F)cc34)n2)CC1` [Compound I-241, 2-((R)-1-(1-((R)-2-amino-4-methylpentanoyl)piperidin-4-yl)ethylamino)-4-(5-(trifluoromethyl)-1H-pyrrolo[2,3-b]pyridin-3-yl)pyrimidine-5-carbonitrile], for which the Ki is 3 to 40 nM.

In the case of `C[C@@H](Nc1ncc(C#N)c(-c2c[nH]c3ncc(C(F)(F)F)cc23)n1)[C@H]1CC[C@@H](NS(C)(=O)=O)CC1` (single isomer, unassigned) [Compound I-203], the Ki was less than 3 nM.

In the case of `CC(C)Oc1ncc(C#N)c(-c2c[nH]c3ncc(C(F)(F)F)cc23)n1` [EG5, 2-isopropoxy-4-(5-(trifluoromethyl)-1H-pyrrolo[2,3-b]pyridin-3-yl)pyrimidine-5-carbonitrile], the Ki was greater than 40 nM.

For the compound `N#Cc1cnc(NCCCN2CCOCC2)nc1-c1c[nH]c2ncc(C(F)(F)F)cc12` [Compound I-70, 2-(3-morpholinopropylamino)-4-(5-(trifluoromethyl)-1H-pyrrolo[2,3-b]pyridin-3-yl)pyrimidine-5-carbonitrile], the Ki was greater than 40 nM.

Take `N#Cc1cnc(SC2CCCCC2)nc1-c1c[nH]c2ncc(C(F)(F)F)cc12` [II-13, 2-(cyclohexylthio)-4-(5-(trifluoromethyl)-1H-pyrrolo[2,3-b]pyridin-3-yl)pyrimidine-5-carbonitrile]: the Ki is greater than 40 nM.

Consider `C[C@@H](Nc1ncc(C#N)c(-c2c[nH]c3ncc(C(F)(F)F)cc23)n1)C1CCN(C(=O)[C@H](N)CC#N)CC1` [Compound I-251, 2-((R)-1-(1-((R)-2-amino-3-cyanopropanoyl)piperidin-4-yl)ethylamino)-4-(5-(trifluoromethyl)-1H-pyrrolo[2,3-b]pyridin-3-yl)pyrimidine-5-carbonitrile], for which the Ki is less than 3 nM.

The values above are taken from patent publication US8530489B2 (Vertex Pharmaceuticals Incorporated, priority 2006, dated 2013).
